Test results as given in EP0645397B1, “Glutathione analogs and paralog panels comprising glutathione mimics” (TERRAPIN TECHNOLOGIES, INC., priority 1993, dated 1998).

How the values were obtained:
[1] = system: glyoxalase I; assay: SDS/PAGE detection of glyoxalase I-like protein in sorbent eluates; type: binding, rat; conditions: EDTA in buffers
From the text: A protein with a molecular migration similar to that of another GSH-dependent enzyme, glyoxalase I, was also present in the eluates from γE-C(Bz)-A and γE-C(Bz)-βA, but was not detected in eluates from the other sorbents. […] Glyoxalase I is known to be a metal-dependent enzyme, and the presence of EDTA in the buffers may have interfered with binding activity.

[2] = system: rat liver cytosolic GST isoenzymes; assay: Affinity chromatography of rat liver cytosol on GSH and GSH analog sorbents; recovery of protein and CDNB-conjugating activity in elution fractions; type: binding
Method: 0.66 g epoxy Sepharose™ 6B (Pharmacia) was swollen with 10 mL water for 15 min, then rinsed twice with 10 mL water in a 15 mL sintered glass funnel. A solution of 100-500 mg of the crude tripeptide in 5 mL ethanol and 10 mL water was adjusted to pH 11-12 with 6 N NaOH in a 20 mL scintillation vial with a polycone cap. The rinsed resin was added, and gently agitated overnight in a 37° water bath. The pH was checked the next day and brought back to pH 11-12 with 6 N NaOH if needed. After another day of agitation, the resin was filtered (the peptide-containing liquid was acidified with conc HCl, evaporated and saved) and rinsed three times with 10 mL water. The unfunctionalized epoxy groups were capped by soaking the resin in 10 mL of water which contained about 0.1 mL ethanolamine for 1 hr. The resin was then rinsed three times with 10 mL water, and a sample was removed for analysis. The remainder was rinsed with 10 mL of 0.1 M NaOAc, 0.5 M NaCl pH 4.0 buffer, followed by 10 mL of 0.1 M tris chloride, 0.5 M NaCl pH 8.0 buffer. The resin was stored at 4°C in this pH 8 buffer.
The recoveries of protein and GST (CDNB-conjugating) activity in the elution fractions after affinity purification of rat liver cytosolic GST isoenzymes on various compounds of the invention are shown in Table 3.

[3] = system: rat cytosolic GST isoenzymes; assay: Isoenzyme composition of sorbent eluates by SDS/PAGE and reverse-phase HPLC; type: binding
Method: Fractions eluted from the sorbents listed in Table 3 were analyzed by SDS/PAGE followed by silver staining. S-L-GSH and HxGSH sorbents bound proteins which corresponded to the previously observed electrophoretic band pattern of rat liver GST subunits. […] As the π-class GST 7-7 is found at low levels in rat liver cytosol, other rat tissues known to express higher levels of this isoenzyme also were tested.
Independent confirmation of this conclusion, at higher resolution, was provided by reverse-phase HPLC analyses of the GST isoenzymes in the eluates from different sorbents. […] Subunits 3, 4 and 6 are µ-class isoenzymes, subunits 1a, 1b, 2 and 8 are α-class isoenzymes, and subunit 7 is the π-class isoenzyme.

protein with a molecular migration similar to glyoxalase I in eluate [1]: present | Protein recovery ([2]; Table 4, rat cytosolic GST isoenzymes): 1.0% | protein recovery seen with HxGSH ([2]; relative to HxGSH sorbent): 33% | CDNB-conjugating activities ([2]; relative to HxGSH sorbent, after correcting for the inhibitory properties of the eluting ligand): 52%
SMILES: N[C@@H](CCC(=O)N[C@@H](CSCc1ccccc1)C(=O)NCCC(=O)O)C(=O)O [γE-C(Bz)-βA, γ-glutamyl S-benzyl cysteinyl β-alanine]
SDS/PAGE band pattern of eluate ([3]; rat liver cytosol, silver staining): highly enriched band for presumptive µ-class isoenzymes | isoenzymes bound ([3]; reverse-phase HPLC of eluates): selectively bound the µ-class isoenzymes 3 and 4
